# ± gives the standard deviation of the reports.
row,glass transition temperature [°C],Compound
1,105.00,*OC(COC(=O)C12CC3CC(CC(C(*)=O)(C3)C1)C2)COc1ccc(/N=N/c2ccc(C#N)cc2)cc1 (repeat unit)
2,223.50,*CCCCCCCCc1nc2ccc(-c3ccc4nc(*)oc4c3)cc2o1 (repeat unit)
3,-58.00,*CCOCCOC(=O)C(CCCCCCC)C(=O)O* (repeat unit)
4,181.00,*/C(C#N)=C/c1cc(OCCCCCCCCCCCC)c(/C=C(\C#N)c2cc(OCCCCCCCCCCCC)c(*)cc2OC)cc1OC (repeat unit)
5,34.00,*CC(*)(C)C(=O)OCCCCOc1ccc(OC(=O)c2ccc(OCCCCCC)cc2)cc1 (repeat unit)
6,36.00,*Oc1ccc(CC(NC(=O)CCc2ccc(OC(=O)COCC(*)=O)cc2)C(=O)OCCCCCCCCCCCC)cc1 (repeat unit)
7,60.00,*O[Si](C)(C)CCCC(=O)Oc1ccc(/C=N/c2ccc(/N=C/c3ccc(OC(=O)CCC[Si](*)(C)C)cc3)cc2)cc1 (repeat unit)
8,40.00,*C(=O)OCC(C)(C)CSCC(C)(C)COC(=O)C1(C)CNC(*)(C)CN1 (repeat unit)
9,96.00,*Oc1cccc(OC(=O)c2cc(OCCCCC)cc(C(*)=O)c2)c1 (repeat unit)
10,199.00,*CC1CCCC(CN2C(=O)c3ccc(Oc4ccc5c(c4)C(=O)N(*)C5=O)cc3C2=O)C1 (repeat unit)
11,191.00,*Nc1ccc(NC(=O)c2ccc(NC(=O)CCCCCCCCCCCCC(=O)Nc3ccc(C(*)=O)cc3)cc2)cc1C(=O)OCCCCCCCCCCCCCCCCCC (repeat unit)
12,25.00,*CC(F)(F)C(F)(F)C(F)(F)COC(=O)NCC(F)(F)C(F)(F)C(F)(F)C(F)(F)CNC(=O)O* (repeat unit)
13,10.00,*OC1CCC(OC(=O)OCCCCCCOC(*)=O)CC1 (repeat unit)
14,148.00,*CCN(CCOC(=O)Nc1ccc(C)c(NC(=O)O*)c1)c1ccc(/N=N/c2ccc(/N=N/c3cc(OC)c(/N=N/c4ccc([N+](=O)[O-])cc4)cc3OC)c(C)c2)cc1 (repeat unit)
15,105.00,*CC(*)(C)C(=O)OCCN(CCCC)c1ccc(/N=N/c2ccc(S(=O)(=O)Nc3cc(C)on3)cc2)cc1 (repeat unit)
16,49.00,*CC(*)(C)C(=O)OCCCCCCOc1ccc(C(=O)Oc2ccc(OCCCC)cc2)cc1 (repeat unit)
17,-20.00,*CC(CC)(CC)COC(=O)c1ccc(-c2ccc(-c3ccc(C(=O)O*)cc3)cc2)cc1 (repeat unit)
18,99.00,*Oc1cc(OCCOC)c(OC(=O)c2ccc(C(*)=O)cc2OCCOCC)cc1OCCOC (repeat unit)
19,208.1,*Oc1ccc(NC(=O)c2cc(C(=O)Nc3ccc(*)cc3)c(C(=O)OCC)cc2C(=O)OCC)cc1 (repeat unit)
20,100.00,*CC(*)c1ccc(C(C)(O)CCCCC)cc1 (repeat unit)
21,-6.00,*CCCCCCOC(=O)OCCCCCCCCCOC(=O)OCCCCCCOc1ccc(C(=O)c2ccc(O*)cc2)cc1 (repeat unit)
22,167.00,*CCOC(=O)c1ccc(/C(C#N)=C(\c2ccc(OC)cc2)N2CCC(*)CC2)cc1 (repeat unit)
23,96.70,*CCCCCCCCn1c2ccccc2c2cc(/C=C(\C#N)C(=O)OCCCCCCOC(=O)/C(C#N)=C/c3ccc4c(c3)c3ccccc3n4*)ccc21 (repeat unit)

# More lines, now with the values behind:
row,Compound,glass transition temperature [°C]
1,*C(=O)Nc1ccc(Oc2cccc(Oc3ccc(NC(=O)c4ccc5c(c4)C(=O)N(c4ccc(Oc6cccc(Oc7ccc(N8C(=O)c9ccc(*)cc9C8=O)cc7)c6C#N)cc4)C5=O)cc3)c2C#N)cc1 (repeat unit),220.00
2,*C(*)O (repeat unit),134.00
3,*C[Si](*)(CCC)CCC (repeat unit),-41.00
4,*CCC1C(=O)N(CC)C(=O)C1* (repeat unit),109.20
5,*Oc1ccc(Oc2ccc(C(=O)Nc3ccc(Oc4ccc(NC(=O)c5ccc(*)cc5)cc4)cc3)cc2)cc1-c1ccccc1 (repeat unit),219.00
6,*Oc1ccc(S(=O)(=O)c2ccc(Oc3ccc(C(c4ccc(*)c([Si](C)(C)C)c4)(C(F)(F)F)C(F)(F)F)cc3[Si](C)(C)C)cc2)cc1 (repeat unit),168.60
7,*c1ccc2c(c1)C(=O)N(c1c(C)cc(C3(c4cc(C)c(N5C(=O)c6ccc(C(*)(C(F)(F)F)C(F)(F)F)cc6C5=O)c(C)c4)c4ccccc4-c4ccccc43)cc1C)C2=O (repeat unit),361.00
8,*Oc1ccc(NC(=O)c2ccc(*)cc2)cc1 (repeat unit),225.00
9,*c1ccc(C(c2ccccc2)(c2ccc(N3C(=O)c4ccc(Oc5ccc6c(c5)C(=O)N(*)C6=O)cc4C3=O)cc2)C(F)(F)F)cc1 (repeat unit),293.00
10,*Oc1ccc(C2(c3ccc(Oc4ccc(/C=C/C(=O)c5ccc(*)cc5)cc4)cc3)c3ccccc3-c3ccccc32)cc1 (repeat unit),195.00
11,*Oc1ccc(C(C)(C)c2ccc(Oc3ccc(C(=O)c4cccc5cccc(C(=O)c6ccc(*)cc6)c45)cc3)cc2)cc1 (repeat unit),210.50
12,*c1cccc(C(=O)Nc2ccc(Oc3ccc(NC(=O)c4cccc(N5C(=O)c6ccc(-c7cccc8c7C(=O)N(*)C8=O)cc6C5=O)c4)cc3)cc2)c1 (repeat unit),291.00
13,*Nc1cc(NC(=O)c2ccc(C(*)=O)cc2)cc(-c2nc3ccccc3oc2=O)c1 (repeat unit),103.00
14,*c1cccc(P(=O)(c2ccc(C(F)(F)F)cc2)c2cccc(-n3c(=O)c4cc5c(=O)n(*)c(=O)c5c(-c5cc(C(F)(F)F)cc(C(F)(F)F)c5)c4c3=O)c2)c1 (repeat unit),290.00
15,*CC(*)c1ccccc1C(F)(F)F (repeat unit),165.00
16,*CC(C)(C)CS* (repeat unit),-49.30
17,"*CC(*)c1ccc(C)c(C)c1 (repeat unit) [Poly(3,4-dimethyl styrene) ]",111 ± 2.4
18,*c1ccc(-c2cc(C(C)(C)C)c(Oc3ccc(N4C(=O)c5ccc(S(=O)(=O)c6ccc7c(c6)C(=O)N(*)C7=O)cc5C4=O)cc3)c(C(C)(C)C)c2)cc1 (repeat unit),354.50
19,*COC(=O)OCC1OC(C)(C)OC1* (repeat unit),51.30
20,*NC(C)(CC)C(*)=O (repeat unit),74.2
21,*CC(Cc1ccc(-c2ccccc2)cc1)C[Si](*)(C)C (repeat unit),28.00

row,Compound,glass transition temperature [°C]
1,*c1nnc(-c2ccc(Oc3ccc(C(c4ccc(Oc5ccc(*)c6ccccc56)cc4)(C(F)(F)F)C(F)(F)F)cc3)c3ccccc23)o1 (repeat unit),220.00
2,*c1ccc2c(c1)C(=O)N(c1c(C)cc(-c3cc(C)c(N4C(=O)c5ccc(C(*)(C(F)(F)F)C(F)(F)F)cc5C4=O)c4ccccc34)c3ccccc13)C2=O (repeat unit),403.00
3,*/N=N/c1ccc(NC(=O)CCC(=O)Nc2ccc(*)cc2)cc1 (repeat unit),220.00
4,*/C(C#N)=C(\C#N)N1C(=O)c2ccc(C(=O)c3ccc(-c4ccc5c(c4)C(=O)N(*)C5=O)cc3)cc2C1=O (repeat unit),249.00
5,"*c1ccc(*)cc1 (repeat unit) [Poly(1,4-phenylene)]",278.18 ± 19
6,*C(=O)c1ccc2c(c1)C(=O)N(c1ccc(Cc3cccc(N4C(=O)c5ccc(*)cc5C4=O)c3)cc1)C2=O (repeat unit),281.00
7,*CC(*)C(=O)c1ccc(CCC)cc1 (repeat unit),44.00
8,*Oc1ccc(S(=O)(=O)c2ccc(Oc3ccc(C(c4ccc(*)cc4)(C(F)(F)F)C(F)(F)F)cc3)cc2C(O)(C(F)(F)F)C(F)(F)F)c(C(O)(C(F)(F)F)C(F)(F)F)c1 (repeat unit),148.00
9,*CC(=C)COCC(=C)COC(=O)O* (repeat unit),70.50
10,*c1ccc2c(c1)C(=O)N(c1ccc(N3C(=O)c4ccc(-c5c(-c6ccccc6)c(-c6ccccc6)c(-c6ccc(Sc7ccc(-c8c(-c9ccccc9)c(-c9ccccc9)c(*)c(-c9ccccc9)c8-c8ccccc8)cc7)cc6)c(-c6ccccc6)c5-c5ccccc5)cc4C3=O)cc1)C2=O (repeat unit),344.00
11,*CCC1C(=O)N(C)C(=O)C1* (repeat unit),141.20
12,*Oc1c(-c2ccccc2)cc(*)cc1-c1ccc(C(C)(C)C)cc1 (repeat unit),240.00
13,*c1ccc(NC(=O)Cc2ccc(-c3sc(-c4ccc(CC(=O)Nc5ccc(-c6sc(*)c(-c7ccccc7)c6-c6ccccc6)cc5)cc4)c(-c4ccccc4)c3-c3ccccc3)cc2)cc1 (repeat unit),273.00
14,*CCCCOC(=O)/C=C/C(=O)O* (repeat unit),93.00
15,*c1ccc(Oc2ccc(C3(c4ccc(Oc5ccc(N6C(=O)c7ccc(Oc8c(C)cc(C(C)(C)c9cc(C)c(Oc%10ccc%11c(c%10)C(=O)N(*)C%11=O)c(C)c9)cc8C)cc7C6=O)cc5)cc4)CC4CC3C3CCCC43)cc2)cc1 (repeat unit),262.00
16,*Nc1ccccc1CCc1ccc(NC(*)=O)cc1 (repeat unit),198.00
17,*CC(CCCC)O* (repeat unit),-69.00
18,*c1ccc(Oc2cccc(N3C(=O)c4ccc(-c5ccc6c(c5)C(=O)N(*)C6=O)cc4C3=O)c2)cc1 (repeat unit),259.00
19,*Oc1cccc(NC(=O)c2cc(NC(=O)c3ccc(OC(C)=O)cc3)cc(C(=O)Nc3ccc(*)cc3)c2)c1 (repeat unit),251.00
20,*C(=O)c1ccc2c(c1)C(=O)N(c1cccc(NC(=O)c3cccc(C(=O)Nc4cccc(N5C(=O)c6ccc(*)cc6C5=O)c4)c3)c1)C2=O (repeat unit),204.00
21,*CCOCCOP(=O)(/N=N/c1ccc(-c2ccc(/N=N/P(=O)(O*)OC)cc2)cc1)OC (repeat unit),22.00

# Reference: the PolyMetriX glass transition set
